From ChEMBL document CHEMBL5303573, “Mapping human microbiome drug metabolism by gut bacteria and their genes” (Nature, 2019)

test: The drug is tested on Bifidobacterium longum subsp. Infantis strain: CCUG52486 for biotransformation. The drug concentrations were measured before and after a 12-h incubation by liquid-chromatography-coupled mass spectrometry (LC–MS); conditions: 2 µM

SMILES | Bacterial Biotransformation
CC(C)c1c(CN(C)C(C)Cc2ccccc2)n(C)n(-c2ccccc2)c1=O (stereo unspecified) [FAMPROFAZONE] | Compound NOT metabolized
CN1CCOC(c2ccccc2)c2ccccc2C1 (stereo unspecified) [NEFOPAM] | Compound NOT metabolized

test: The drug is tested on Bifidobacterium ruminantium strain: fecal isolate for biotransformation. The drug concentrations were measured before and after a 12-h incubation by liquid-chromatography-coupled mass spectrometry (LC–MS); conditions: 2 µM

SMILES | Bacterial Biotransformation
CCN(CC)CC#CCOC(=O)C(O)(c1ccccc1)C1CCCCC1.Cl (stereo unspecified) [OXYBUTYNIN CHLORIDE] | Compound metabolized
CN1CCOC(c2ccccc2)c2ccccc2C1 (stereo unspecified) [NEFOPAM] | Compound NOT metabolized

test: The drug is tested on Collinsella aerofaciens strain: ATCC25986 for biotransformation. The drug concentrations were measured before and after a 12-h incubation by liquid-chromatography-coupled mass spectrometry (LC–MS); conditions: 2 µM

SMILES | Bacterial Biotransformation
CCN(CC)CC#CCOC(=O)C(O)(c1ccccc1)C1CCCCC1.Cl (stereo unspecified) [OXYBUTYNIN CHLORIDE] | Compound NOT metabolized
CCN(CC)C(C)CN1c2ccccc2Sc2ccccc21 (stereo unspecified) [ETHOPROPAZINE] | Compound NOT metabolized
CC(C)c1c(CN(C)C(C)Cc2ccccc2)n(C)n(-c2ccccc2)c1=O (stereo unspecified) [FAMPROFAZONE] | Compound metabolized
CN1CCOC(c2ccccc2)c2ccccc2C1 (stereo unspecified) [NEFOPAM] | Compound NOT metabolized

test: The drug is tested on Bacteroides dorei strain: DSM17855 for biotransformation. The drug concentrations were measured before and after a 12-h incubation by liquid-chromatography-coupled mass spectrometry (LC–MS); conditions: phocaeicola dorei, 2 µM

SMILES | Bacterial Biotransformation
CCN(CC)CC#CCOC(=O)C(O)(c1ccccc1)C1CCCCC1.Cl (stereo unspecified) [OXYBUTYNIN CHLORIDE] | Compound metabolized
CCN(CC)C(C)CN1c2ccccc2Sc2ccccc21 (stereo unspecified) [ETHOPROPAZINE] | Compound metabolized
CC(C)c1c(CN(C)C(C)Cc2ccccc2)n(C)n(-c2ccccc2)c1=O (stereo unspecified) [FAMPROFAZONE] | Compound metabolized

test: The drug is tested on Bacteroides finegoldii strain: DSM17565 for biotransformation. The drug concentrations were measured before and after a 12-h incubation by liquid-chromatography-coupled mass spectrometry (LC–MS); conditions: 2 µM

SMILES | Bacterial Biotransformation
CCN(CC)C(C)CN1c2ccccc2Sc2ccccc21 (stereo unspecified) [ETHOPROPAZINE] | Compound NOT metabolized
CC(C)c1c(CN(C)C(C)Cc2ccccc2)n(C)n(-c2ccccc2)c1=O (stereo unspecified) [FAMPROFAZONE] | Compound metabolized
CN1CCOC(c2ccccc2)c2ccccc2C1 (stereo unspecified) [NEFOPAM] | Compound NOT metabolized

test: The drug is tested on Bacteroides sp. WH2 strain: WH2 for biotransformation. The drug concentrations were measured before and after a 12-h incubation by liquid-chromatography-coupled mass spectrometry (LC–MS); conditions: bacteroides sp. wh2, 12 h, 2 µM

SMILES | Bacterial Biotransformation
CCN(CC)CC#CCOC(=O)C(O)(c1ccccc1)C1CCCCC1.Cl (stereo unspecified) [OXYBUTYNIN CHLORIDE] | Compound NOT metabolized
CCN(CC)C(C)CN1c2ccccc2Sc2ccccc21 (stereo unspecified) [ETHOPROPAZINE] | Compound NOT metabolized
CC(C)c1c(CN(C)C(C)Cc2ccccc2)n(C)n(-c2ccccc2)c1=O (stereo unspecified) [FAMPROFAZONE] | Compound metabolized
CN1CCOC(c2ccccc2)c2ccccc2C1 (stereo unspecified) [NEFOPAM] | Compound NOT metabolized

test: The drug is tested on Bacteroides xylanisolvens strain: DSM18836 for biotransformation. The drug concentrations were measured before and after a 12-h incubation by liquid-chromatography-coupled mass spectrometry (LC–MS); conditions: 2 µM

SMILES | Bacterial Biotransformation
CCN(CC)CC#CCOC(=O)C(O)(c1ccccc1)C1CCCCC1.Cl (stereo unspecified) [OXYBUTYNIN CHLORIDE] | Compound metabolized
CCN(CC)C(C)CN1c2ccccc2Sc2ccccc21 (stereo unspecified) [ETHOPROPAZINE] | Compound metabolized
CC(C)c1c(CN(C)C(C)Cc2ccccc2)n(C)n(-c2ccccc2)c1=O (stereo unspecified) [FAMPROFAZONE] | Compound metabolized
CN1CCOC(c2ccccc2)c2ccccc2C1 (stereo unspecified) [NEFOPAM] | Compound NOT metabolized

test: The drug is tested on Anaerotruncus colihominis strain: DSM17241 for biotransformation. The drug concentrations were measured before and after a 12-h incubation by liquid-chromatography-coupled mass spectrometry (LC–MS); conditions: 2 µM

SMILES | Bacterial Biotransformation
CCN(CC)CC#CCOC(=O)C(O)(c1ccccc1)C1CCCCC1.Cl (stereo unspecified) [OXYBUTYNIN CHLORIDE] | Compound NOT metabolized
CCN(CC)C(C)CN1c2ccccc2Sc2ccccc21 (stereo unspecified) [ETHOPROPAZINE] | Compound NOT metabolized
CN1CCOC(c2ccccc2)c2ccccc2C1 (stereo unspecified) [NEFOPAM] | Compound NOT metabolized

test: The drug is tested on Eubacterium hallii strain: DSM3353 for biotransformation. The drug concentrations were measured before and after a 12-h incubation by liquid-chromatography-coupled mass spectrometry (LC–MS); conditions: anaerobutyricum hallii, 2 µM

SMILES | Bacterial Biotransformation
CCN(CC)CC#CCOC(=O)C(O)(c1ccccc1)C1CCCCC1.Cl (stereo unspecified) [OXYBUTYNIN CHLORIDE] | Compound NOT metabolized
CCN(CC)C(C)CN1c2ccccc2Sc2ccccc21 (stereo unspecified) [ETHOPROPAZINE] | Compound NOT metabolized
CC(C)c1c(CN(C)C(C)Cc2ccccc2)n(C)n(-c2ccccc2)c1=O (stereo unspecified) [FAMPROFAZONE] | Compound NOT metabolized
CN1CCOC(c2ccccc2)c2ccccc2C1 (stereo unspecified) [NEFOPAM] | Compound NOT metabolized

test: The drug is tested on Eubacterium ventriosum strain: ATCC27560 for biotransformation. The drug concentrations were measured before and after a 12-h incubation by liquid-chromatography-coupled mass spectrometry (LC–MS); type: ADME; set-up: dose 2 uM, timepoint 0 vs 12 hours; conditions: 2 µM

SMILES | Bacterial Biotransformation
CCN(CC)CC#CCOC(=O)C(O)(c1ccccc1)C1CCCCC1.Cl (stereo unspecified) [OXYBUTYNIN CHLORIDE] | Compound metabolized
CCN(CC)C(C)CN1c2ccccc2Sc2ccccc21 (stereo unspecified) [ETHOPROPAZINE] | Compound NOT metabolized
CC(C)c1c(CN(C)C(C)Cc2ccccc2)n(C)n(-c2ccccc2)c1=O (stereo unspecified) [FAMPROFAZONE] | Compound NOT metabolized
CN1CCOC(c2ccccc2)c2ccccc2C1 (stereo unspecified) [NEFOPAM] | Compound NOT metabolized

test: The drug is tested on Ruminococcus gnavus strain: ATCC29149 for biotransformation. The drug concentrations were measured before and after a 12-h incubation by liquid-chromatography-coupled mass spectrometry (LC–MS); conditions: mediterraneibacter gnavus, 2 µM

SMILES | Bacterial Biotransformation
CCN(CC)CC#CCOC(=O)C(O)(c1ccccc1)C1CCCCC1.Cl (stereo unspecified) [OXYBUTYNIN CHLORIDE] | Compound NOT metabolized
CCN(CC)C(C)CN1c2ccccc2Sc2ccccc21 (stereo unspecified) [ETHOPROPAZINE] | Compound NOT metabolized
CC(C)c1c(CN(C)C(C)Cc2ccccc2)n(C)n(-c2ccccc2)c1=O (stereo unspecified) [FAMPROFAZONE] | Compound NOT metabolized
CN1CCOC(c2ccccc2)c2ccccc2C1 (stereo unspecified) [NEFOPAM] | Compound NOT metabolized

test: The drug is tested on Providencia stuartii strain: ATCC25827 for biotransformation. The drug concentrations were measured before and after a 12-h incubation by liquid-chromatography-coupled mass spectrometry (LC–MS); conditions: 2 µM

SMILES | Bacterial Biotransformation
CCN(CC)CC#CCOC(=O)C(O)(c1ccccc1)C1CCCCC1.Cl (stereo unspecified) [OXYBUTYNIN CHLORIDE] | Compound NOT metabolized
CCN(CC)C(C)CN1c2ccccc2Sc2ccccc21 (stereo unspecified) [ETHOPROPAZINE] | Compound metabolized
CC(C)c1c(CN(C)C(C)Cc2ccccc2)n(C)n(-c2ccccc2)c1=O (stereo unspecified) [FAMPROFAZONE] | Compound NOT metabolized
CN1CCOC(c2ccccc2)c2ccccc2C1 (stereo unspecified) [NEFOPAM] | Compound NOT metabolized

conditions: bacteroides fragilis, 12 h, 2 µM
Description: The drug is tested on Bacteroides fragilis strain: NCTC 9343 for biotransformation. The drug concentrations were measured before and after a 12-h incubation by liquid-chromatography-coupled mass spectrometry (LC–MS)

SMILES | Bacterial Biotransformation
CCN(CC)C(C)CN1c2ccccc2Sc2ccccc21 (stereo unspecified) [ETHOPROPAZINE] | Compound NOT metabolized
CC(C)c1c(CN(C)C(C)Cc2ccccc2)n(C)n(-c2ccccc2)c1=O (stereo unspecified) [FAMPROFAZONE] | Compound metabolized
CN1CCOC(c2ccccc2)c2ccccc2C1 (stereo unspecified) [NEFOPAM] | Compound NOT metabolized

conditions: bacteroides intestinalis, 12 h, 2 µM
Description: The drug is tested on Bacteroides intestinalis strain: DSM17393 for biotransformation. The drug concentrations were measured before and after a 12-h incubation by liquid-chromatography-coupled mass spectrometry (LC–MS)

SMILES | Bacterial Biotransformation
CCN(CC)CC#CCOC(=O)C(O)(c1ccccc1)C1CCCCC1.Cl (stereo unspecified) [OXYBUTYNIN CHLORIDE] | Compound NOT metabolized
CCN(CC)C(C)CN1c2ccccc2Sc2ccccc21 (stereo unspecified) [ETHOPROPAZINE] | Compound metabolized
CC(C)c1c(CN(C)C(C)Cc2ccccc2)n(C)n(-c2ccccc2)c1=O (stereo unspecified) [FAMPROFAZONE] | Compound metabolized
CN1CCOC(c2ccccc2)c2ccccc2C1 (stereo unspecified) [NEFOPAM] | Compound NOT metabolized

conditions: bacteroides thetaiotaomicron, 12 h, 2 µM
Description: The drug is tested on Bacteroides thetaiotaomicron strain: 3731 for biotransformation. The drug concentrations were measured before and after a 12-h incubation by liquid-chromatography-coupled mass spectrometry (LC–MS)

SMILES | Bacterial Biotransformation
CCN(CC)CC#CCOC(=O)C(O)(c1ccccc1)C1CCCCC1.Cl (stereo unspecified) [OXYBUTYNIN CHLORIDE] | Compound NOT metabolized
CCN(CC)C(C)CN1c2ccccc2Sc2ccccc21 (stereo unspecified) [ETHOPROPAZINE] | Compound NOT metabolized
CC(C)c1c(CN(C)C(C)Cc2ccccc2)n(C)n(-c2ccccc2)c1=O (stereo unspecified) [FAMPROFAZONE] | Compound metabolized
CN1CCOC(c2ccccc2)c2ccccc2C1 (stereo unspecified) [NEFOPAM] | Compound NOT metabolized

conditions: limosilactobacillus reuteri cf48-3a, 12 h, 2 µM
Description: The drug is tested on Lactobacillus reuteri CF48-3A strain: BEI HM-102 for biotransformation. The drug concentrations were measured before and after a 12-h incubation by liquid-chromatography-coupled mass spectrometry (LC–MS)

SMILES | Bacterial Biotransformation
CCN(CC)CC#CCOC(=O)C(O)(c1ccccc1)C1CCCCC1.Cl (stereo unspecified) [OXYBUTYNIN CHLORIDE] | Compound NOT metabolized
CC(C)c1c(CN(C)C(C)Cc2ccccc2)n(C)n(-c2ccccc2)c1=O (stereo unspecified) [FAMPROFAZONE] | Compound metabolized
CN1CCOC(c2ccccc2)c2ccccc2C1 (stereo unspecified) [NEFOPAM] | Compound NOT metabolized

conditions: roseburia intestinalis, 12 h, 2 µM
Description: The drug is tested on Roseburia intestinalis strain: L1-82 for biotransformation. The drug concentrations were measured before and after a 12-h incubation by liquid-chromatography-coupled mass spectrometry (LC–MS)

SMILES | Bacterial Biotransformation
CCN(CC)CC#CCOC(=O)C(O)(c1ccccc1)C1CCCCC1.Cl (stereo unspecified) [OXYBUTYNIN CHLORIDE] | Compound NOT metabolized
CCN(CC)C(C)CN1c2ccccc2Sc2ccccc21 (stereo unspecified) [ETHOPROPAZINE] | Compound NOT metabolized
CC(C)c1c(CN(C)C(C)Cc2ccccc2)n(C)n(-c2ccccc2)c1=O (stereo unspecified) [FAMPROFAZONE] | Compound NOT metabolized
CN1CCOC(c2ccccc2)c2ccccc2C1 (stereo unspecified) [NEFOPAM] | Compound NOT metabolized

conditions: akkermansia muciniphila, 12 h, 2 µM
Description: The drug is tested on Akkermansia muciniphila strain: ATCC BAA-835 for biotransformation. The drug concentrations were measured before and after a 12-h incubation by liquid-chromatography-coupled mass spectrometry (LC–MS)

SMILES | Bacterial Biotransformation
CCN(CC)C(C)CN1c2ccccc2Sc2ccccc21 (stereo unspecified) [ETHOPROPAZINE] | Compound NOT metabolized
CC(C)c1c(CN(C)C(C)Cc2ccccc2)n(C)n(-c2ccccc2)c1=O (stereo unspecified) [FAMPROFAZONE] | Compound metabolized
